Ends that are not written are not given here.
Legend:
[1] = target: T1, trypsin (Sus scrofa, UniProt P00761); test: Simulated intestinal digestion with trypsin; assay type: in vitro ADME; conditions: simulated intestinal fluid (trypsin from porcine pancreas, bile salt), pH 7.6, 2 h, 37 °C, after pepsin step; judged by unchanged cytokine levels
T1 construct: purchased Shanghai Aladdin Biochemical Technology Co., Ltd; host or cells: porcine pancreas
Protocol: The stability of GBP in response to pepsin and trypsin in the simulation of GI digestion in vitro was examined based on Xie et al.. First, 2 g of NaCl and 3.2 g of pepsin from porcine gastric mucosa (Purity: 1:3000, CAS: 9001-75-6, Shanghai Aladdin Biochemical Technology Co., Ltd., Shanghai, China) were added to 800 mL of ultrapure water. The pH of the solution was adjusted with 6 mol/L hydrochloric acid to 3.0, and the volume was adjusted with ultrapure water to 1 L (as simulated gastric juice). Then, 0.68 g of potassium dihydrogen phosphate and 7.7 mL sodium hydroxide solution (0.2 mol/L) were dissolved in 70 mL of ultrapure water; 1 g of trypsin from porcine pancreas (Purity: ≥250 units/mg, CAS: […], Shanghai Aladdin Biochemical Technology Co., Ltd., Shanghai, China) and 6 g of bile salt were added and dissolved. The above solution was mixed and supplemented with ultrapure water to 1 L. Finally, the pH of the mixed solution was adjusted to 7.6 with sodium hydroxide solution (0.2 mol/L) (as simulated intestinal fluid). The 200 μg/mL peptide solution was adjusted to a pH of 3.0 with a 1 mol/L HCl solution, and 5 mL of simulated gastric juice was added to the solution and the reaction was carried out for 2 h in 37 °C water bath. Then, the simulated gastric digestion was terminated by being heated at 100 °C for 10 min. […]

[2] = test system: T2, pepsin; test: Simulated gastric digestion with pepsin, products analysed by LC–MS/MS; assay type: in vitro ADME, porcine; conditions: pig, simulated gastric fluid; simulated gastric juice (pepsin from porcine gastric mucosa, NaCl), pH 3.0, 200 μg/mL peptide, 2 h, 37 °C; LC–MS/MS; read-out: share of IVYPWTQR split into smaller fragments after pepsin treatment
T2 construct: purchased Shanghai Aladdin Biochemical Technology Co., Ltd; host or cells: porcine gastric mucosa
Protocol: (§1) The fractionation of the peak with the highest anti-inflammatory activity obtained from RP-LC was further identified by LC-MS/MS equipped with a reversed phase BEH C18 analytical column (1.7 μm, 2.1 × 100 mm, Waters Inc., Milford, MA, USA). The fraction of peptide with the highest anti-inflammatory activity obtained from RP-LC was further Identified by LC-MS/MS. Eluent A: 0.065% TFA in 2% acetonitrile; Eluent B: 0.050% TFA in 80% acetonitrile. The gradient elution parameters: 0–30 min, 100% eluent A; 30–60 min, 30–80% eluent B; 60–80 min, 100% eluent A. The above flow rates were 0.5 mL/min. The fractions were detected at 280 nm by an ultraviolet detector. The flow entered directly into the MS/MS system (MALDI SYNAPT Q-TOF MS, Waters, Inc. Milford, MA, USA) for multiple reaction measurement. The recording mass range of precursor ions was m/z 50–4000. Nitrogen was used as a collision gas. Capillary voltage was set at 3.5 kV and cone voltage at 20 V. Source block temperature was set at 100 °C and desolvation temperature at 250 °C. Collision energy and detector voltage were 15 and 1600 V, respectively. The desolvation and cone gas flow were 500 and 50 L/h, respectively. The N-terminal fragment ion series (B series) and the C-terminal fragment ion series (Y series) were analysed. The amino acid sequence of the peptide was obtained by comprehensive analysis of B and Y ion series through Mass Lynx V4.1 operating system.
(§2) The stability of GBP in response to pepsin and trypsin in the simulation of GI digestion in vitro was examined based on Xie et al.. First, 2 g of NaCl and 3.2 g of pepsin from porcine gastric mucosa (Purity: 1:3000, CAS: 9001-75-6, Shanghai Aladdin Biochemical Technology Co., Ltd., Shanghai, China) were added to 800 mL of ultrapure water. The pH of the solution was adjusted with 6 mol/L hydrochloric acid to 3.0, and the volume was adjusted with ultrapure water to 1 L (as simulated gastric juice). […]

[3] = target: T3, pepsin (Sus scrofa, UniProt P00791); test: as above; assay type: in vitro ADME, porcine; conditions: 37 °C
T3 construct: purchased Shanghai Aladdin Biochemical Technology Co., Ltd; host or cells: porcine gastric mucosa
T3 sequence (P00791 60-385): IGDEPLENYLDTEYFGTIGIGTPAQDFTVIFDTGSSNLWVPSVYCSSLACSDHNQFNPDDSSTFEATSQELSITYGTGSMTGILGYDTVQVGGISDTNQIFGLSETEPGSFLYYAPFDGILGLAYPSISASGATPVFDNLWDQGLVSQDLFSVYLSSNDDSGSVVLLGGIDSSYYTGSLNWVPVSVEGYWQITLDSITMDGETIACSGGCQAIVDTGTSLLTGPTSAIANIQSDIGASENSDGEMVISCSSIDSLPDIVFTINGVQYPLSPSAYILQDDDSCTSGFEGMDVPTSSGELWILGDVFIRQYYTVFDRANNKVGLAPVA
Protocol: as §1, §2

T1 sequence (P00761 9-231): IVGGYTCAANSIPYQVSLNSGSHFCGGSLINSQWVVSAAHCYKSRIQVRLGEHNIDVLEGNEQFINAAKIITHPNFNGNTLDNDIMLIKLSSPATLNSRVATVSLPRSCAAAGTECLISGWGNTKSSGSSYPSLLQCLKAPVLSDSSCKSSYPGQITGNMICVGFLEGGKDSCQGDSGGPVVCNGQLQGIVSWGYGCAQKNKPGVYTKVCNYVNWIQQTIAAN

Row | Substance | stability against trypsin [1] | metabolised at 2 h, 200 μg/mL [2] | stability against pepsin ([3]; simulated gastric digestion, pepsin, pH 3.0, 2 h) | share of fragment formed from IVYPWTQR after pepsin treatment ([3]; simulated gastric juice (pepsin), pH 3.0, 200 μg/mL peptide, 2 h, LC–MS/MS)
1 | IVYPWTQR [IVYPWTQR, IIe-Val-Tyr-Pro-Trp-Thr-Gln-Arg] | robustly resists trypsin | ~45.2% | sensitive to pepsin | –
2 | YPWTQR [fragment of IVYPWTQR after pepsin treatment] | – | – | – | 25.19%

— paper PMC9781827, “Isolation and Identification of Anti-Inflammatory Peptide from Goose Blood Hydrolysate to Ameliorate LPS-Mediated Inflammation and Oxidative Stress in RAW264.7 Macrophages” (Molecules, 2022)
